According to patent US8211928B2, “Hepatitis C virus inhibitors” (Bristol-Myers Squibb Company, priority 2009, dated 2012):

What follows are molecules tested on HCV 1b genotype (assay: HCV replicon assay, 1b genotype). Settings: Hepatitis C virus; HCV 1b genotype replicon; activity ranges; read-out: 1b EC50 in Range.
Format: cell-based
Method: An HCV Replion assay was utilized in the present disclosure, and was prepared, conducted and validated as described in commonly owned PCT/US2006/022197 and in O'Boyle et. al. Antimierob Agents Chemother. 2005 April; 49(4):1346-53. Assay methods incorporating luciferase reporters have also been used as described (Apath.com).
HCV-neo replicon cells and HCV replicon cells containing mutations in the NS5A region were used to test the currently described family of compounds. The compounds were determined to have more than 10-fold less inhibitory activity on cells containing mutations than wild-type cells. Thus, the compounds of the present disclosure can be effective in inhibiting the function of the HCV NS5A protein and are understood to be as effective in combinations as previously described in application PCT/US2006/022197 and commonly owned WO/04014852. Further, the compounds of the present disclosure can be effective against the HCV 1b genotype. It should also be understood that the compounds of the present disclosure can inhibit multiple genotypes of HCV. […] In one embodiment, compounds of the present disclosure are inhibitory versus 1a, 1b, 2a, 2b, 3a, 4a, and 5a genotypes. Activity ranges are as follows: A=>100 nM; B=1-100 nM; C=101-999 pM; and D=1-100 pM.
Work on `COC(=O)N[C@H](C(=O)N1CCC[C@H]1C(=O)Nc1noc2cc(-c3ccc(-c4cnc([C@@H]5CCCN5C(=O)[C@@H](NC(=O)OC)C(C)C)[nH]4)cc3)ccc12)C(C)C` [Example 5] yielded an EC50 of 0.101 to 0.999 nM. For `CN(C)[C@@H](C(=O)N1CCC[C@H]1C(=O)Nc1noc2cc(-c3ccc(-c4cnc([C@@H]5CCCN5C(=O)[C@@H](c5ccccc5)N(C)C)[nH]4)cc3)ccc12)c1ccccc1` [Example 6], the EC50 was 0.101 to 0.999 nM. Work on `COC(=O)N[C@@H](C(=O)N1CCC[C@H]1C(=O)Nc1noc2cc(-c3ccc(-c4cnc([C@@H]5CCCN5C(=O)[C@H](NC(=O)OC)C(C)C)[nH]4)cc3)ccc12)C(C)C` [Example 7] yielded an EC50 greater than 100 nM. `COC(=O)N[C@H](C(=O)N1CCC[C@H]1C(=O)Nc1noc2cc(-c3ccc(-c4cnc([C@@H]5CCCN5C(=O)[C@@H](NC(=O)OC)[C@@H](C)OC)[nH]4)cc3)ccc12)[C@@H](C)OC` [Example 8] was tested, and the EC50 was 0.101 to 0.999 nM. For `COC(=O)N[C@@H](C)C(=O)N1CCC[C@H]1C(=O)Nc1noc2ccc(-c3ccc(-c4cnc([C@@H]5CCCN5C(=O)[C@H](C)NC(=O)OC)[nH]4)cc3)cc12` [Example 12], the EC50 was 1 to 100 nM. In the case of `COC(=O)N[C@H](C(=O)N1CCC[C@H]1C(=O)Nc1noc2ccc(-c3ccc(-c4cnc([C@@H]5CCCN5C(=O)[C@@H](NC(=O)OC)C(C)C)[nH]4)cc3)cc12)C(C)C` [Example 13], the EC50 is reported as 1 to 100 nM. `COC(=O)N[C@H](C(=O)N1CCC[C@H]1C(=O)Nc1noc2ccc(-c3ccc(-c4cnc([C@@H]5CCCN5C(=O)[C@@H](NC(=O)OC)[C@@H](C)OC)[nH]4)cc3)cc12)[C@@H](C)OC` [Example 14] was tested, and the EC50 was 1 to 100 nM. `COCC[C@H](NC(=O)OC)C(=O)N1CCC[C@H]1C(=O)Nc1noc2ccc(-c3ccc(-c4cnc([C@@H]5CCCN5C(=O)[C@H](CCOC)NC(=O)OC)[nH]4)cc3)cc12` [Example 15] gave an EC50 of 1 to 100 nM. With `COC(=O)N[C@@H](C(=O)N1CCC[C@H]1C(=O)Nc1noc2ccc(-c3ccc(-c4cnc([C@@H]5CCCN5C(=O)[C@H](NC(=O)OC)C(C)C)[nH]4)cc3)cc12)C(C)C` [Example 16] the EC50 was greater than 100 nM. With `CN(C)[C@@H](C(=O)N1CCC[C@H]1C(=O)Nc1noc2ccc(-c3ccc(-c4cnc([C@@H]5CCCN5C(=O)[C@@H](c5ccccc5)N(C)C)[nH]4)cc3)cc12)c1ccccc1` [Example 17] the EC50 was 1 to 100 nM. For `COC(=O)N[C@@H](C)C(=O)N1CCC[C@H]1C(=O)Nc1n[nH]c2cc(-c3ccc(-c4cnc([C@@H]5CCCN5C(=O)[C@H](C)NC(=O)OC)[nH]4)cc3)ccc12` [Example 22, (S)-1-((S)-2-Methoxycarbonylaminopropanoyl)-N-(6-(4-(2-((S)-1-((S)-2-methoxycarbonylaminopropanoyl)pyrrolidin-2-yl)-1H-imidazol-5-yl)phenyl)-1H-indazol-3-yl)pyrrolidine-2-carboxamide], the EC50 was 1 to 100 nM. Work on `CCN(CC)[C@@H](C(=O)N1CCC[C@H]1C(=O)Nc1n[nH]c2cc(-c3ccc(-c4cnc([C@@H]5CCCN5C(=O)[C@@H](c5ccccc5)N(CC)CC)[nH]4)cc3)ccc12)c1ccccc1` [Example 23] yielded an EC50 of 0.001 to 0.1 nM. `COC(=O)N[C@H](C(=O)N1CCC[C@H]1C(=O)Nc1n[nH]c2cc(-c3ccc(-c4cnc([C@@H]5CCCN5C(=O)[C@@H](NC(=O)OC)C(C)C)[nH]4)cc3)ccc12)C(C)C` [Example 24] showed an EC50 of 0.101 to 0.999 nM. Molecule `COC(=O)N[C@H](C(=O)N1CCC[C@H]1C(=O)Nc1n[nH]c2cc(-c3ccc(-c4cnc([C@@H]5CCCN5C(=O)[C@@H](NC(=O)OC)[C@@H](C)OC)[nH]4)cc3)ccc12)[C@@H](C)OC` [Example 25] has an EC50 of 1 to 100 nM. For `COC(=O)N[C@@H](C)C(=O)N1CCC[C@H]1C(=O)Nc1n[nH]c2ccc(-c3ccc(-c4cnc([C@@H]5CCCN5C(=O)[C@H](C)NC(=O)OC)[nH]4)cc3)cc12` [Example 29], the EC50 was greater than 100 nM. In the case of `CN(C)[C@@H](C(=O)N1CCC[C@H]1C(=O)Nc1n[nH]c2ccc(-c3ccc(-c4cnc([C@@H]5CCCN5C(=O)[C@@H](c5ccccc5)N(C)C)[nH]4)cc3)cc12)c1ccccc1` [Example 30], the EC50 is reported as 1 to 100 nM. `COC(=O)N[C@H](C(=O)N1CCC[C@H]1C(=O)Nc1n[nH]c2ccc(-c3ccc(-c4cnc([C@@H]5CCCN5C(=O)[C@@H](NC(=O)OC)C(C)C)[nH]4)cc3)cc12)C(C)C` [Example 31] showed an EC50 greater than 100 nM. Work on `COCC[C@H](NC(=O)OC)C(=O)N1CCC[C@H]1C(=O)Nc1n[nH]c2ccc(-c3ccc(-c4cnc([C@@H]5CCCN5C(=O)[C@H](CCOC)NC(=O)OC)[nH]4)cc3)cc12` [Example 32] yielded an EC50 of 1 to 100 nM. `COC(=O)N[C@H](C(=O)N1CCC[C@H]1C(=O)Nc1n[nH]c2ccc(-c3ccc(-c4cnc([C@@H]5CCCN5C(=O)[C@@H](NC(=O)OC)[C@@H](C)OC)[nH]4)cc3)cc12)[C@@H](C)OC` [Example 33] showed an EC50 greater than 100 nM. In the case of `COC(=O)N[C@@H](C(=O)N1CCC[C@H]1C(=O)Nc1n[nH]c2ccc(-c3ccc(-c4cnc([C@@H]5CCCN5C(=O)[C@H](NC(=O)OC)c5ccccc5)[nH]4)cc3)cc12)c1ccccc1` [Example 34], the EC50 is reported as 1 to 100 nM.

Same assay, conditions: Hepatitis C virus; HCV 1b genotype replicon; read-out: 1b EC50
Work on `COC(=O)N[C@H](C(=O)N1CCC[C@H]1C(=O)Nc1noc2ccc(-c3ccc(-c4cnc([C@@H]5CCCN5C(=O)[C@@H](NC(=O)OC)C(C)C)[nH]4)cc3)cc12)C(C)C` [Example 13] yielded an EC50 of 30.1 nM. For `CCN(CC)[C@@H](C(=O)N1CCC[C@H]1C(=O)Nc1n[nH]c2cc(-c3ccc(-c4cnc([C@@H]5CCCN5C(=O)[C@@H](c5ccccc5)N(CC)CC)[nH]4)cc3)ccc12)c1ccccc1` [Example 23], the EC50 was 0.043 nM. With `COC(=O)N[C@H](C(=O)N1CCC[C@H]1C(=O)Nc1n[nH]c2ccc(-c3ccc(-c4cnc([C@@H]5CCCN5C(=O)[C@@H](NC(=O)OC)[C@@H](C)OC)[nH]4)cc3)cc12)[C@@H](C)OC` [Example 33] the EC50 was 1200 nM.
